Starred links: 1 amine or outer side, 2 acyl side, 3 side chain; linkers in the order of their positions; H or OH if unused. Positions of bridges follow the written chain, without caps; N, C: chain ends. Non-standard residues stand in square brackets, D forms with d. Residues, ends and D or L forms follow the SMILES beside them. Groups on a side chain read outwards from the residue. ξ: configuration not given here. *: point of attachment. 2Furoyl(5-aminomethyl) = O=C(c1ccc(CN[*:1])o1)[*:2]; Ala(imidazol-2-yl) = N[C@@H](Cc1ncc[nH]1)C(=O)O; Trp(5-OH) = N[C@@H](Cc1c[nH]c2ccc(O)cc12)C(=O)O; Trp(5-F) = N[C@@H](Cc1c[nH]c2ccc(F)cc12)C(=O)O; Acetyl(2-(4-imidazolyl)) = O=C(Cc1c[nH]cn1)*; Phe(4-CH2NH2) = NCc1ccc(C[C@H](N)C(=O)O)cc1; X3 = O=C(CCSCc1cc(F)cc(CSCCN[*:1])c1)[*:2]; mXylylene(5-F) = Fc1cc(C[*:1])cc(C[*:2])c1; Pro(cis-4-F) = O=C(O)[C@@H]1C[C@H](F)CN1; X4 = O=C(CCSCc1cccc(CSCCN[*:1])c1)[*:2]; γGlu = O=C(O)[C@H](CCC(=O)[*:2])N[*:1]; mXylylene = c1cc(C[*:1])cc(C[*:2])c1; AEF = NCCOc1ccc(C[C@H](N)C(=O)O)cc1; X48 = CC(N[*:1])c1ncc(C(=O)[*:2])s1; Adipoyl = O=C(CCCCC(=O)[*:2])[*:1]; Palmitoyl = CCCCCCCCCCCCCCCC(=O)*; ξAla(CF3) = NC(CC(F)(F)F)C(=O)O; Lys(Me) = CNCCCC[C@H](N)C(=O)O; αMeP = C[C@@]1(C(=O)O)CCCN1; Isovaleryl = CC(C)CC(=O)*; Dab = NCC[C@H](N)C(=O)O; AEEA = NCCOCCOCC(=O)O; Mpa = O=C(O)CCS
target: PCSK9 (Homo sapiens (Human), UniProt Q8NBP7); assay: PCSK9 Alexa FRET Standard assay (displacement of AlexaFluor647 tagged cyclic peptide Reagent A); format: binding; conditions: IC50, PCSK9 Alexa FRET Standard assay, 0.5 nM PCSK9, 20 nM AF cyclic peptide Reagent A
Sequence (Q8NBP7 153-692): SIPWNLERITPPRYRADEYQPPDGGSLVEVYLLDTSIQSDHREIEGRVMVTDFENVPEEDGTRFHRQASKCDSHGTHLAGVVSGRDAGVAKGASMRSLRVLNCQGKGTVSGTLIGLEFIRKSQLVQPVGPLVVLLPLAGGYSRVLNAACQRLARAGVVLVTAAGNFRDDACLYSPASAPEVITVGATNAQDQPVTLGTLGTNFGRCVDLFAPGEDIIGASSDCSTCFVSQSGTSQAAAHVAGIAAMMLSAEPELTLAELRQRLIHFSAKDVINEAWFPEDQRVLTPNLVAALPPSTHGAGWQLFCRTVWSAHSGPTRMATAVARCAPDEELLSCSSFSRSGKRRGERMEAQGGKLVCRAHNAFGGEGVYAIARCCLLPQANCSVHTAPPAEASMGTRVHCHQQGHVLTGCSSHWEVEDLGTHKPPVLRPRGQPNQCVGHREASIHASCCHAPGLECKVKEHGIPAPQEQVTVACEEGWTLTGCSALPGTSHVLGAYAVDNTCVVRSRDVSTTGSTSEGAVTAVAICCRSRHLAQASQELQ
Description: A solution containing 1 nM biotinylated PCSK9+2.5 nM Lance Streptavidin Europium (Strep-Eu) was made in 50 mM HEPES pH 7.4, 0.15 M NaCl, 5 mM CaCl2), 0.01% BSA, and 0.01% Surfactant P20. A separate solution containing 40 nM of the AlexaFluor tagged cyclic peptide was made in the same buffer system. An Echo was used to transfer 0.750 ul of compound to an assay plate followed by the addition of 15 ul of PCSK9+Stept-Eu and 15 ul of AF peptide. The final assay volume was 30.750 ul containing 0.5 nM PCSK9, 1.25 nM Strep-Eu, and 20 nM AF cyclic peptide. The reaction was incubated at room temperature for at least two hours prior to fluorescence measurements using an Envision Multilabel Reader. IC50 values were determined by fitting data to a sigmoidal dose-response curve using nonlinear regression. Ki was then calculated from the IC50 and the KD of AF cyclic peptide. Counts (B-counts) of the europium-labeled PCSK9 were followed to observe if compounds were […]. A fall off of the B-counts likely indicated a false positive of inhibition. Data from this procedure was reported as “A=‘numerical value’ (nanomolar)”

| Compound | IC50 |
| --- | --- |
| COc1ccc(C[C@@H]2NC(=O)[C@H]([C@@H](C)O)NC(=O)[C@@H]3C[C@H](F)CN3C(=O)[C@H](Cc3c[nH]c4ccc(F)cc34)NC(=O)[C@H](Cc3c[nH]c4ccc(F)cc34)NC(=O)[C@@H](C)NC(=O)[C@H](CCCCN)NC(=O)[C@@H](NC(=O)Cc3cnc[nH]3)CC(=O)NCCOc3ccc(cc3)C[C@@H](C(N)=O)NC(=O)[C@]3(C)CCCN3C2=O)cc1 [Compound 105] ({Acetyl(2-(4-imidazolyl))}-DK[dA][Trp(5-F)][Trp(5-F)][Pro(cis-4-F)]TY(Me)[αMeP][AEF]-NH2; lactam 1-10) | 1 to 12.1 µM |

same assay, conditions: PCSK9 Alexa FRET Standard assay, 0.5 nM PCSK9, 20 nM AF cyclic peptide Reagent A; read-out: IC50

| Compound | IC50 |
| --- | --- |
| CCCCCCCCCCCCCCCC(=O)N[C@@H](CCC(=O)NCCOCCOCC(=O)NCCOCCOCC(=O)NCC[C@H](NC(=O)CNC(=O)CNC(=O)[C@@H]1CSCc2cccc(c2)CSCCC(=O)N[C@@H](CCCCN)C(=O)N[C@H](C)C(=O)N[C@@H](Cc2c[nH]c3ccc(F)cc23)C(=O)N[C@@H](Cc2c[nH]c3ccc(F)cc23)C(=O)N[C@@H](CC(=O)O)C(=O)N[C@@H](Cc2cnc[nH]2)C(=O)N[C@@H](Cc2ccc(O)cc2)C(=O)N2CCC[C@@]2(C)C(=O)N1)C(N)=O)C(=O)O [Compound 439] ([Mpa]K[dA][Trp(5-F)][Trp(5-F)]DHY[αMeP]CGG[Dab]([AEEA-AEEA-γGlu-Palmitoyl])-NH2; linker 1-10 via mXylylene) | 21 to 50 µM |
| C[C@H]1NC(=O)[C@H](CCCCN)NC(=O)CCSCc2cccc(c2)CSC[C@@H](C(N)=O)NC(=O)[C@]2(C)CCCN2C(=O)[C@H](Cc2ccc(O)cc2)NC(=O)C2=CC=C(CNC(=O)[C@H](Cc3c[nH]c4ccc(F)cc34)NC(=O)[C@H](Cc3c[nH]c4ccc(F)cc34)NC1=O)O2 [Compound 429] ([Mpa]K[dA][Trp(5-F)][Trp(5-F)][2Furoyl(5-aminomethyl)]Y[αMeP]C-NH2; linker 1-9 via mXylylene) | 0.1 to 1 µM |
| CNCCCC[C@@H]1NC(=O)CCSCc2cc(F)cc(c2)CSCCNC(=O)[C@]2(C)CCCN2C(=O)[C@H](Cc2ccc(OC)cc2)NC(=O)[C@H](Cc2ncc[nH]2)NC(=O)[C@H](CC(=O)O)NC(=O)[C@H](Cc2c[nH]c3ccc(F)cc23)NC(=O)[C@H](Cc2c[nH]c3ccc(F)cc23)NC(=O)[C@@H](C)NC1=O [Compound 468] (cyclo(D[Ala(imidazol-2-yl)]Y(Me)[αMeP][X3][Lys(Me)][dA][Trp(5-F)][Trp(5-F)])) | 1 to 12.1 µM |
| COc1ccc(C[C@@H]2NC(=O)[C@H]([C@@H](C)O)NC(=O)[C@@H]3C[C@H](F)CN3C(=O)[C@H](Cc3c[nH]c4ccc(F)cc34)NC(=O)[C@H](Cc3c[nH]c4ccc(F)cc34)NC(=O)[C@@H](C)NC(=O)[C@H](CCCCN)NC(=O)[C@@H](NC(=O)CC(C)C)CC(=O)NCCOc3ccc(cc3)C[C@@H](C(N)=O)NC(=O)[C@]3(C)CCCN3C2=O)cc1 [Compound 107] (Isovaleryl-DK[dA][Trp(5-F)][Trp(5-F)][Pro(cis-4-F)]TY(Me)[αMeP][AEF]-NH2; lactam 1-10) | 0.1 to 1 µM |
| COc1ccc(C[C@@H]2NC(=O)[C@H]([C@@H](C)O)NC(=O)[C@@H]3CCCN3C(=O)[C@H](Cc3c[nH]c4ccc(F)cc34)NC(=O)[C@H](Cc3c[nH]c4ccc(F)cc34)NC(=O)[C@@H](C)NC(=O)[C@H](CCCCN)NC(=O)CCSCc3cc(F)cc(c3)CSC[C@@H](C(N)=O)NC(=O)[C@]3(C)CCCN3C2=O)cc1 [Compound 041] ([Mpa]K[dA][Trp(5-F)][Trp(5-F)]PTY(Me)[αMeP]C-NH2; linker 1-10 via mXylylene(5-F)) | 21 to 50 µM |
| COc1ccc(C[C@@H]2NC(=O)[C@H](Cc3cnc[nH]3)NC(=O)[C@H](CC(=O)O)NC(=O)[C@H](Cc3c[nH]c4ccc(F)cc34)NC(=O)[C@H](Cc3c[nH]c4ccc(F)cc34)NC(=O)[C@@H](C)NC(=O)[C@H](CCCCN)NC(=O)[C@@H](NC(C)=O)CC(=O)NCc3ccc(cc3)C[C@@H](C(N)=O)NC(=O)[C@]3(C)CCCN3C2=O)cc1 [Compound 348] (Ac-DK[dA][Trp(5-F)][Trp(5-F)]DHY(Me)[αMeP][Phe(4-CH2NH2)]-NH2; lactam 1-10) | 21 to 50 µM |
| NC(=O)[C@@H]1Cc2ccc(cc2)CNC(=O)CCCCC(=O)NCC(=O)N[C@@H](Cc2c[nH]c3ccc(F)cc23)C(=O)N[C@@H](Cc2c[nH]c3ccc(F)cc23)C(=O)N[C@@H](CC(=O)O)C(=O)N[C@@H](Cc2cnc[nH]2)C(=O)N[C@@H](Cc2ccc(O)cc2)C(=O)N1 [Compound 438] (G[Trp(5-F)][Trp(5-F)]DHY[Phe(4-CH2NH2)]-NH2; linker N-7 via Adipoyl) | 21 to 50 µM |
| CC1NC(=O)CCSCc2cccc(c2)CSC[C@@H](C(N)=O)NC(=O)[C@]2(C)CCCN2C(=O)[C@H](Cc2ccc(O)cc2)NC(=O)[C@H](Cc2cnc[nH]2)NC(=O)[C@H](CC(=O)O)NC(=O)[C@H](Cc2c[nH]c3ccc(F)cc23)NC(=O)[C@H](Cc2c[nH]c3ccc(F)cc23)NC(=O)C2=CN=C1S2 (some centres unmarked) [Compound 434] ([Mpa][X48][Trp(5-F)][Trp(5-F)]DHY[αMeP]C-NH2; linker 1-9 via mXylylene) | 21 to 50 µM |
| COc1ccc(C[C@@H]2NC(=O)[C@H](Cc3ncc[nH]3)NC(=O)[C@H](CC(=O)O)NC(=O)[C@H](Cc3c[nH]c4ccc(F)cc34)NC(=O)[C@H](Cc3c[nH]c4ccc(F)cc34)NC(=O)[C@@H](C)NC(=O)C(CC(F)(F)F)NC(=O)CCSCc3cccc(c3)CSCCNC(=O)[C@]3(C)CCCN3C2=O)cc1 (some centres unmarked) [Compound 443] (cyclo(D[Ala(imidazol-2-yl)]Y(Me)[αMeP][X4][ξAla(CF3)][dA][Trp(5-F)][Trp(5-F)])) | 21 to 50 µM |
| CO[C@H](C)[C@@H]1NC(=O)CCSCc2cccc(c2)CSC[C@@H](C(N)=O)NC(=O)[C@]2(C)CCCN2C(=O)[C@H](Cc2ccc(O)cc2)NC(=O)[C@H](Cc2cnc[nH]2)NC(=O)[C@H](CC(=O)O)NC(=O)[C@H](Cc2c[nH]c3ccc(F)cc23)NC(=O)[C@H](Cc2c[nH]c3ccc(F)cc23)NC(=O)CNC1=O [Compound 375] ([Mpa]T(Me)G[Trp(5-F)][Trp(5-F)]DHY[αMeP]C-NH2; linker 1-10 via mXylylene) | 21 to 50 µM |
| C[C@@]12CCCN1C(=O)[C@H](Cc1ccc(O)cc1)NC(=O)[C@H](Cc1cnc[nH]1)NC(=O)[C@H](CC(=O)O)NC(=O)[C@H](Cc1c[nH]c3ccc(O)cc13)NC(=O)[C@H](Cc1c[nH]c3ccc(O)cc13)NC(=O)CNC(=O)[C@H](CCCCN)NC(=O)CCSCc1cccc(c1)CSC[C@@H](C(N)=O)NC2=O [Compound 415] ([Mpa]KG[Trp(5-OH)][Trp(5-OH)]DHY[αMeP]C-NH2; linker 1-10 via mXylylene) | 0.00011 to 0.1 µM |
| C[C@@]12CCCN1C(=O)[C@H](Cc1ccc(O)cc1)NC(=O)[C@H](Cc1cnc[nH]1)NC(=O)[C@H](CC(=O)O)NC(=O)[C@H](Cc1c[nH]c3ccc(F)cc13)NC(=O)[C@H](Cc1c[nH]c3ccc(F)cc13)NC(=O)C1=CC=C(CNC(=O)CCSCc3cccc(c3)CSC[C@@H](C(N)=O)NC2=O)O1 [Compound 428] ([Mpa][2Furoyl(5-aminomethyl)][Trp(5-F)][Trp(5-F)]DHY[αMeP]C-NH2; linker 1-9 via mXylylene) | 21 to 50 µM |
| C[C@@]12CCCN1C(=O)[C@H](Cc1ccc(O)cc1)NC(=O)CN1C(=O)[C@H](CCc3ccccc31)NC(=O)[C@H](Cc1c[nH]c3ccc(F)cc13)NC(=O)[C@H](Cc1c[nH]c3ccc(F)cc13)NC(=O)CNC(=O)[C@H](CCCCN)NC(=O)CCSCc1cccc(c1)CSC[C@@H](C(N)=O)NC2=O [Compound 110] | 21 to 50 µM |

— US11530244B2, “Cyclic polypeptides for PCSK9 inhibition” (priority 2018, dated 2022)
